The values below come from ChEMBL document CHEMBL4038300, “Return of D4 Dopamine Receptor Antagonists in Drug Discovery” (J Med Chem, 2017).

In data set [1] the target is T1, D(1A) dopamine receptor (Homo sapiens, UniProt P21728). Briefly: Inhibition of human dopamine D1 receptor.
The target in data set [2] is D(2) dopamine receptor (Homo sapiens, UniProt P14416). Briefly: Inhibition of human dopamine D2 receptor.
Data set [3] addresses T2, D(3) dopamine receptor (Homo sapiens, UniProt P35462). Briefly: Inhibition of human dopamine D3 receptor.
Data set [4] concerns the target T3, 5-hydroxytryptamine receptor 1A (Homo sapiens, UniProt P08908).
T3 sequence (P08908 whole entry): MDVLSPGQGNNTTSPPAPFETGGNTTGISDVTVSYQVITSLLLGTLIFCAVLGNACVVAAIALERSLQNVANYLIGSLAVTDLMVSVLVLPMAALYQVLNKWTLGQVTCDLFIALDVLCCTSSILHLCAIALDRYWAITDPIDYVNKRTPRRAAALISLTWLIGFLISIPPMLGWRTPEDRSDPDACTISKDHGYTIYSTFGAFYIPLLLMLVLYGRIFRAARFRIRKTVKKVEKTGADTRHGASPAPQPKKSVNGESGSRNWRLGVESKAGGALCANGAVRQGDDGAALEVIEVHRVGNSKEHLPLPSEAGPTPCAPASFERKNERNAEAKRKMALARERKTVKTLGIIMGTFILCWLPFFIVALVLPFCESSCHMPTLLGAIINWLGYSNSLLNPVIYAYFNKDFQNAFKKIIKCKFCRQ
Briefly: Inhibition of serotonin 5-HT1A receptor (unknown origin).

In data set [5] the target is 5-hydroxytryptamine receptor 2A (Homo sapiens, UniProt P28223). Briefly: Inhibition of serotonin 5-HT2 receptor (unknown origin).
Data set [6] deals with T4, Adrenergic receptor alpha-1 (Homo sapiens, UniProt P35348+P25100+P35368).
T4 sequence (P35348 whole entry): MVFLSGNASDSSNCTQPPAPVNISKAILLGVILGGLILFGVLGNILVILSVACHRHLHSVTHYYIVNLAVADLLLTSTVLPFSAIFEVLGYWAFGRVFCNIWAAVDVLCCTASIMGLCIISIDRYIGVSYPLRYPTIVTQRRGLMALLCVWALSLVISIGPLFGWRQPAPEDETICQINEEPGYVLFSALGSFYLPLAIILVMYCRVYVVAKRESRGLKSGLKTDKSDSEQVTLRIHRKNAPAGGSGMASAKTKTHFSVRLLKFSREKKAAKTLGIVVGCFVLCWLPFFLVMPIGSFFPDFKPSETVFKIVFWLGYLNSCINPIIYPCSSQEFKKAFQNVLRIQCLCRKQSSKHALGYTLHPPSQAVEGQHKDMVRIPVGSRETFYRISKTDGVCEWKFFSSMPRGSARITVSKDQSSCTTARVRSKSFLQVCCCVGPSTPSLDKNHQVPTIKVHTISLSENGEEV
T4 sequence (P25100 whole entry): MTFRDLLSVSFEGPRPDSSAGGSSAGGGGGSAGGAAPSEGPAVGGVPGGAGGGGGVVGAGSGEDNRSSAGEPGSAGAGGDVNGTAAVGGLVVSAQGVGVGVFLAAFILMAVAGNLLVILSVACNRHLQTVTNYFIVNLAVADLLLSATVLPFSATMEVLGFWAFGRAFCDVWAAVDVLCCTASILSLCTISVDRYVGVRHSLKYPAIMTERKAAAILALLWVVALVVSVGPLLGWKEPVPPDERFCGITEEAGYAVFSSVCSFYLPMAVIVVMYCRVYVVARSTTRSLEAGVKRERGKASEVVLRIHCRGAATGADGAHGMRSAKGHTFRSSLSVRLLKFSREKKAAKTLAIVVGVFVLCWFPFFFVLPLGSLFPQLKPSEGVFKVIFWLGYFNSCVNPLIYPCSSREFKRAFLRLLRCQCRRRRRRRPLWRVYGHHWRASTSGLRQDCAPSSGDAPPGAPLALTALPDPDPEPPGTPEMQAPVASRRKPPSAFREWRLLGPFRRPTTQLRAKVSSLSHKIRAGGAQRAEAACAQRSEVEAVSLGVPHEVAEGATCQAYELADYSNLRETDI
T4 sequence (P35368 whole entry): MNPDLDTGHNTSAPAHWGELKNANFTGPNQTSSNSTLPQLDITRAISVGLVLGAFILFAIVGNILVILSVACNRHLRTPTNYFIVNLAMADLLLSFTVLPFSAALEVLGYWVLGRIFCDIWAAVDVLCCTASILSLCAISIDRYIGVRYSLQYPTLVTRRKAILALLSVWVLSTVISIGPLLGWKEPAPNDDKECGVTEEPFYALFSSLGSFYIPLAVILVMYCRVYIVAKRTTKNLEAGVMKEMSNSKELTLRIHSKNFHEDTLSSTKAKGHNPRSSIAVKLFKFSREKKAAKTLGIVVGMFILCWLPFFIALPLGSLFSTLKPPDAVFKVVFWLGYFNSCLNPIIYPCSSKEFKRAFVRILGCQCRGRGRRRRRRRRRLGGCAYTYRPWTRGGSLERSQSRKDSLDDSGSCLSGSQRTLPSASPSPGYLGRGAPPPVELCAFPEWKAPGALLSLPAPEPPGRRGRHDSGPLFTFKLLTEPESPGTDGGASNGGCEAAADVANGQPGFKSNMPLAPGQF
Briefly: (§1) Inhibition of alpha1 adrenergic receptor (unknown origin).

The target in data set [7] is Adrenergic receptor alpha-2 (Homo sapiens, UniProt P08913+P18825+P18089). Briefly: (§2) Inhibition of alpha2 adrenergic receptor (unknown origin).
The target of data set [8] is T5, D(4) dopamine receptor (Homo sapiens, UniProt P21917).
T5 sequence (P21917 whole entry): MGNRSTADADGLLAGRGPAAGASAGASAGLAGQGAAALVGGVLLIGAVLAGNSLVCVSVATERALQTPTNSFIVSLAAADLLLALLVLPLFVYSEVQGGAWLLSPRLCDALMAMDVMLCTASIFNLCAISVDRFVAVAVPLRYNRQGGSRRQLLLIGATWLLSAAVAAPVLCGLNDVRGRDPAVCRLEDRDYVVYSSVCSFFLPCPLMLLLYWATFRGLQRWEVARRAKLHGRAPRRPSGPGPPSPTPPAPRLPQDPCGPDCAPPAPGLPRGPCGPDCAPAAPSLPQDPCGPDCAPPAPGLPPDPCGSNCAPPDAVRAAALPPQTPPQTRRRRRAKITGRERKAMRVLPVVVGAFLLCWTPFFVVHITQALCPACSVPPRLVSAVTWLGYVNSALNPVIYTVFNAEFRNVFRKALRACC
Briefly: Inhibition of human dopamine D4 receptor.

Data set [9] is described as follows: Oral bioavailability in rat at 20 mg/kg. The settings on record: in vivo. The data set is classed as ADME, organism-based.
A short description of data set [10]: Inhibition of human dopamine D4.4 receptor.
Data set [11] deals with 5-hydroxytryptamine receptor 2C (Homo sapiens) (UniProt P28335). Briefly: Inhibition of serotonin 5-HT2C receptor (unknown origin). The note with it: concentration not given here.
In data set [12] the target is Histamine H1 receptor (Homo sapiens, UniProt P35367). Briefly: Inhibition of histamine H1 receptor (unknown origin). The settings on record: concentration not given here.
In data set [13] the target is Adrenergic receptor alpha-1 (Homo sapiens) (UniProt P35348+P25100+P35368). Described as §1. The note with it: concentration not given here.
The target of data set [14] is Adrenergic receptor alpha-2 (Homo sapiens) (UniProt P08913+P18825+P18089). The data set is described as §2. The note with it: concentration not given here.
For data set [15], the target named is Glutamate [NMDA] receptor (Homo sapiens) (UniProt Q05586+Q12879+Q13224+O15399+O60391+Q14957+Q8TCU5). Briefly: Inhibition of NMDA receptor (unknown origin). The settings on record: concentration not given here.
The target of data set [16] is Neuropeptide Y receptor type 1 (Homo sapiens) (UniProt P25929). Briefly: Inhibition of NPY1 receptor (unknown origin). The settings on record: concentration not given here.
The target of data set [17] is Neuropeptide Y receptor type 2 (Homo sapiens) (UniProt P49146). Briefly: Inhibition of NPY2 receptor (unknown origin). The note with it: concentration not given here.
The species entered for data set [18] is Homo sapiens. Briefly: Inhibition of beta-adrenergic receptor (unknown origin). The settings on record: concentration not given here.
Data set [19] has as its target Histamine H3 receptor (Homo sapiens) (UniProt Q9Y5N1). Briefly: Inhibition of histamine H3 receptor (unknown origin). The settings on record: concentration not given here.
Data set [20] is described as follows: Inhibition of human dopamine D4.2 receptor.
Data set [21] in a line: Inhibition of human dopamine D4.7 receptor.
The target in data set [22] is T1, D(1A) dopamine receptor. Briefly: Inhibition of dopamine D1 receptor (unknown origin) at 10 uM.
The target of data set [23] is T2, D(3) dopamine receptor. Briefly: Inhibition of dopamine D3 receptor (unknown origin) at 10 uM.
The target of data set [24] is D(1B) dopamine receptor (Homo sapiens, UniProt P21918). Briefly: Inhibition of dopamine D5 receptor (unknown origin) at 10 uM.
Chain of D(1B) dopamine receptor (P21918 whole entry): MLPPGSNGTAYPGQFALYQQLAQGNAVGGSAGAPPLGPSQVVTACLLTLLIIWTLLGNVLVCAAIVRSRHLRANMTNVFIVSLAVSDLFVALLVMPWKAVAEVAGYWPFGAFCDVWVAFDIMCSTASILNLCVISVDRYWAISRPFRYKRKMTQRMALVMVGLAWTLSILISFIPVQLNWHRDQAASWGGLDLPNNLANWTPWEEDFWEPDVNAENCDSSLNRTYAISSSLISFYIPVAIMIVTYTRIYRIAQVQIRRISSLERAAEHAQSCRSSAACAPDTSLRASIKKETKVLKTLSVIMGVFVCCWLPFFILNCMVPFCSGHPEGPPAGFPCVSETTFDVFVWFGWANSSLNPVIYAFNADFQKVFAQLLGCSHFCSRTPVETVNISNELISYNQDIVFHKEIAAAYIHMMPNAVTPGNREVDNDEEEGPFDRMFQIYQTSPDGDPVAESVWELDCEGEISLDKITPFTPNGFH

T2 sequence (P35462 whole entry): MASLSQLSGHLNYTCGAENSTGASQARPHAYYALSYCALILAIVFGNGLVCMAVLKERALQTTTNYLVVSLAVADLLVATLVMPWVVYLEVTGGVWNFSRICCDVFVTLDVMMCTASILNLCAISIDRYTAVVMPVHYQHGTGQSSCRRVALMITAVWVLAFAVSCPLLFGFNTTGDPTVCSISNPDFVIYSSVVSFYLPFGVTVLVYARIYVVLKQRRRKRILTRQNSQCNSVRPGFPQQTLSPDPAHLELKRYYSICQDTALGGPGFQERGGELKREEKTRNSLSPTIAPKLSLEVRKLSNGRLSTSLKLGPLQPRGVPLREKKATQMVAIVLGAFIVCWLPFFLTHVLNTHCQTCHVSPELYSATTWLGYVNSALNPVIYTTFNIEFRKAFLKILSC
Chain of 5-hydroxytryptamine receptor 2A (P28223 whole entry): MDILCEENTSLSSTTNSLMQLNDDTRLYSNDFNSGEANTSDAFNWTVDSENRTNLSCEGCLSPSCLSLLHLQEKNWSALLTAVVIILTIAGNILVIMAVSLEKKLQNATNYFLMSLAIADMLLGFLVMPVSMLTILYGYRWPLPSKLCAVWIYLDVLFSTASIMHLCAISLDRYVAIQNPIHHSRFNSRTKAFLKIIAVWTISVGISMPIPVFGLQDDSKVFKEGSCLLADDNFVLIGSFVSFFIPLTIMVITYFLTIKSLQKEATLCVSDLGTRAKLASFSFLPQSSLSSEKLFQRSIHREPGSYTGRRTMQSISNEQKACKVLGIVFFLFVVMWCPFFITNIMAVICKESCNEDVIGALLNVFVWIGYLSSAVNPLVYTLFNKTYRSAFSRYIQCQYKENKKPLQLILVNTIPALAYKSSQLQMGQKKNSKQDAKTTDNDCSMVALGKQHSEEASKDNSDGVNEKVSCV
Chain of D(2) dopamine receptor (P14416 whole entry): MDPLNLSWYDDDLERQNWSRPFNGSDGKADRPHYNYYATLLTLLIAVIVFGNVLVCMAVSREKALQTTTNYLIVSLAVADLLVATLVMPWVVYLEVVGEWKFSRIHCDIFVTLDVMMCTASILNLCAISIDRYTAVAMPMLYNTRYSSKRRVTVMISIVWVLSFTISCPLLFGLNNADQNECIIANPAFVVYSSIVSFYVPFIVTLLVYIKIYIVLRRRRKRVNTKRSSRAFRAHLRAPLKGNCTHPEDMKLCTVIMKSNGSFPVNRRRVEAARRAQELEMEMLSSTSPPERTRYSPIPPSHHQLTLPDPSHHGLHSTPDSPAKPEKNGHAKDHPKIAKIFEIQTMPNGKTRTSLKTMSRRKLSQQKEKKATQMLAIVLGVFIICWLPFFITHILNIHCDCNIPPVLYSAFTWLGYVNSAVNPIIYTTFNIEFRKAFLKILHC
T1 sequence (P21728 whole entry): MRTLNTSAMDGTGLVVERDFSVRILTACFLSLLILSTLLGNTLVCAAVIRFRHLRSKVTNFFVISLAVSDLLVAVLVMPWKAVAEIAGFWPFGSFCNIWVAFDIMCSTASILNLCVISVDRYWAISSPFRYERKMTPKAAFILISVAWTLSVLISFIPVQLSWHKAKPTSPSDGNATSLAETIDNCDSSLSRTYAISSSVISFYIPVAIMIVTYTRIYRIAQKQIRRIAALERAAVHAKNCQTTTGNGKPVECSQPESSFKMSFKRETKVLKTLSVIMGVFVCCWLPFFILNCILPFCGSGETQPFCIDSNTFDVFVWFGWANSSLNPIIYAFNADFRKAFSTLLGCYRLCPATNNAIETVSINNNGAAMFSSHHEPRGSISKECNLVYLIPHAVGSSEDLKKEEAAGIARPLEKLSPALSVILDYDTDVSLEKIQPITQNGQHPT
Chain of Neuropeptide Y receptor type 2 (Homo sapiens) (P49146 whole entry): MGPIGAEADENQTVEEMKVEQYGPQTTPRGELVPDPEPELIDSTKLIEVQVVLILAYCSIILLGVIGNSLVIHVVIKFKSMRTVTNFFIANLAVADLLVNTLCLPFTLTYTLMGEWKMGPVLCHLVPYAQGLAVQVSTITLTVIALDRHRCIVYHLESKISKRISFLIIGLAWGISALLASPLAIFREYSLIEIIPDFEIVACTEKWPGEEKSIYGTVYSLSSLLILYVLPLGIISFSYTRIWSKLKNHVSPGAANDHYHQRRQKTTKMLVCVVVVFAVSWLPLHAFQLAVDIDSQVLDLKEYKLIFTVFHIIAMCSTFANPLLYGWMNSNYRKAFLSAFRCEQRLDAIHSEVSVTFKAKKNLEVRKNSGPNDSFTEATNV
Chain of Histamine H1 receptor (P35367 whole entry): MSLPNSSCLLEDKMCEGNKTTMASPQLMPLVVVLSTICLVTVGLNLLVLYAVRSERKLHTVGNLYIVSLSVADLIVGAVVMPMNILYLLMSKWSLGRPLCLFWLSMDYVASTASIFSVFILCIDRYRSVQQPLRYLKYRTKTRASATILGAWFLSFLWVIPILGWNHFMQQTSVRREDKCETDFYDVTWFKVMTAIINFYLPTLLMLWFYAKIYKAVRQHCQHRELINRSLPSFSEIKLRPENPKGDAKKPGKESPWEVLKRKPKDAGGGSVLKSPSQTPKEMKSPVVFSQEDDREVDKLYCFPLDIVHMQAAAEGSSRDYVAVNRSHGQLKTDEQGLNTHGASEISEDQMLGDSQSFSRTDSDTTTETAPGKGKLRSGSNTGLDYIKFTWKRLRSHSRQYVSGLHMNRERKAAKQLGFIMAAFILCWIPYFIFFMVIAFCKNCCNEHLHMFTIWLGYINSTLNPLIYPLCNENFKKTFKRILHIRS
Chain of Histamine H3 receptor (Homo sapiens) (Q9Y5N1 whole entry): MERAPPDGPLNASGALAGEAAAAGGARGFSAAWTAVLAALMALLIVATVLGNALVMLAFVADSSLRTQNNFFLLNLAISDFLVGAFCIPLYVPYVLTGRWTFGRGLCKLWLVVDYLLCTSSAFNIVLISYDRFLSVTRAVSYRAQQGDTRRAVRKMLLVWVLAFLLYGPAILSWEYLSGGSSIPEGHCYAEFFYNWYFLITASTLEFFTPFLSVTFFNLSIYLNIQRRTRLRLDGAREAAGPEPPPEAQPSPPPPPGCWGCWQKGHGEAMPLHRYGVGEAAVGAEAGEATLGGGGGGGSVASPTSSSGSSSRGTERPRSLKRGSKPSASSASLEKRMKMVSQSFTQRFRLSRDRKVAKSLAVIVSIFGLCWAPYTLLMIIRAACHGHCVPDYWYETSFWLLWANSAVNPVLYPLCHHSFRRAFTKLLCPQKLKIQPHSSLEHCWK
Chain of Neuropeptide Y receptor type 1 (Homo sapiens) (P25929 whole entry): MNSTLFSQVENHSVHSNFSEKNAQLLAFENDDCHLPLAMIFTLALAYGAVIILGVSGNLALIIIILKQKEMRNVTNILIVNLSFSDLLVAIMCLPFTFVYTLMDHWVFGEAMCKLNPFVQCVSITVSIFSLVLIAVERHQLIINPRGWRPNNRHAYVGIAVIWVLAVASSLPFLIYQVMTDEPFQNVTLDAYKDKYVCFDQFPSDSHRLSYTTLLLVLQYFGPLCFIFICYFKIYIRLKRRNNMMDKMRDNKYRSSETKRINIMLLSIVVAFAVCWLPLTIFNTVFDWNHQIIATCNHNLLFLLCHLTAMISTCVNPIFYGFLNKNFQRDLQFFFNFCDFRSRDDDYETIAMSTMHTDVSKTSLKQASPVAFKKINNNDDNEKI
Chain of 5-hydroxytryptamine receptor 2C (Homo sapiens) (P28335 whole entry): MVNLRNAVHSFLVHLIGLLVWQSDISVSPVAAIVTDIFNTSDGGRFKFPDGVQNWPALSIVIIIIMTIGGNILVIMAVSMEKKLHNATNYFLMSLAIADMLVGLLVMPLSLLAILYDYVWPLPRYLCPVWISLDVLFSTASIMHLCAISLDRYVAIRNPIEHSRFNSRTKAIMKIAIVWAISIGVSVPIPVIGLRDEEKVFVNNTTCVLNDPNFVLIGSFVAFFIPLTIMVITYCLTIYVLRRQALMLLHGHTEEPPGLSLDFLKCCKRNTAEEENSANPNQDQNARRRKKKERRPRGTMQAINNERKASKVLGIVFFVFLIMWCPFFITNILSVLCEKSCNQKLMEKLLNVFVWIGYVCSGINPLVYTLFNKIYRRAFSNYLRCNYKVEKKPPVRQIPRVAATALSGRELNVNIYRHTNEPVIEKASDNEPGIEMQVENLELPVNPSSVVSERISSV

Regarding `Fc1ccc(N2CCN(CCC3OCCc4ccccc43)CC2)cc1` (stereo not drawn), the Ki was 411 nM in data set [1]; 199 nM in data set [2]; 240 nM in data set [3]; 134 nM in [4]; 5.8 nM in data set [5]; 38 nM in [6]. Further, the Ki in data set [7] came to 181 nM; in [8], 3 nM.

For the compound `c1ccc(OCC2CN(Cc3c[nH]c4ccccc34)CCO2)cc1` (stereo not drawn), the Ki in [2] was determined as 400 nM; in data set [3], 1480 nM; in data set [8], 5.6 nM. Moreover, in data set [9], the bioavailability is greater than 40%.

For the compound `c1ccc(-c2nc(CN3CCN(c4ncccn4)CC3)c[nH]2)cc1`, the Ki in data set [10] is 2.2 nM; in data set [20], 4.2 nM; in [21], 2.1 nM. Also, the inhibition in [5] (concentration not given here), in data set [11], in [12], in [13], in data set [14] and in data set [15] was less than 50% each time. The inhibition in [16], in [17], in [18], in [19], in data set [22] and in data set [23] was less than 50% throughout. The inhibition in data set [24] was less than 50%.

A word on the Ki: it is a measure of affinity in units of concentration, obtained from inhibition or displacement. A lower Ki goes with tighter binding. For orientation: bioavailability means dose-corrected exposure relative to a reference, in per cent. The low end stands for little systemic uptake, the high end for much systemic uptake. For orientation: inhibition means the share of the control response that was lost under treatment. Higher therefore signals strong suppression.
